Source: patent US8415469B2, “Compounds and methods for kinase modulation, and indications therefor” (Plexxikon Inc., priority 2005, dated 2013)

Key:
Type in all cases: biochemical
[1] = target: T1, B-Raf (Homo sapiens, UniProt P15056); experiment: AlphaScreen kinase assay, B-Raf; conditions: read-out: IC50, activity toward kinase B-Raf
T1 construct: purchased Upstate Biotechnology

[2] = target: T2, Kit (Homo sapiens, UniProt P10721); experiment: AlphaScreen kinase assay, Kit; conditions: read-out: IC50, activity toward kinase Kit
T2 construct: P1332.N6 BI PTP KIT M552-K948-X COD; His6 (N); made in house; host or cells: E. coli (PTP1B co-expressed)
T2 sequence (P10721 with tags, fused parts or gaps): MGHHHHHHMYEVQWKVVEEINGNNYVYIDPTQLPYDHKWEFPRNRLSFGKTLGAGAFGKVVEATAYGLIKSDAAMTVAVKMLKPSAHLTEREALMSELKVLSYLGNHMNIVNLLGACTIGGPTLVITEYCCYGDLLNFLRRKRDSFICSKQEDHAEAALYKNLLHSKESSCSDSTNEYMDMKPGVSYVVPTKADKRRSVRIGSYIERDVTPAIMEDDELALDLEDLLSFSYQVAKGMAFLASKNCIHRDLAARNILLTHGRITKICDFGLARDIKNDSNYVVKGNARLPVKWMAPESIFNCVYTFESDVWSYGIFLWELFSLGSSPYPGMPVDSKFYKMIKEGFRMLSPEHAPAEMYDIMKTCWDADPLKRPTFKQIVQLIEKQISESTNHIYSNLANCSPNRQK

[3] = target: T3, B-Raf V600E (Homo sapiens, UniProt P15056, V600E); experiment: AlphaScreen kinase assay, B-Raf V600E; conditions: read-out: IC50, activity toward kinase B-Raf V600E
T3 construct: P4254. pFastBacBD-CDC37 BRAF D437-K722-X, V600E; His6 with pFastBac HT leader (TEV site) (N); made in house; host or cells: Sf9 (baculovirus; chaperone CDC37 co-expressed)
T3 sequence (P15056 with tags, fused parts or gaps V600E): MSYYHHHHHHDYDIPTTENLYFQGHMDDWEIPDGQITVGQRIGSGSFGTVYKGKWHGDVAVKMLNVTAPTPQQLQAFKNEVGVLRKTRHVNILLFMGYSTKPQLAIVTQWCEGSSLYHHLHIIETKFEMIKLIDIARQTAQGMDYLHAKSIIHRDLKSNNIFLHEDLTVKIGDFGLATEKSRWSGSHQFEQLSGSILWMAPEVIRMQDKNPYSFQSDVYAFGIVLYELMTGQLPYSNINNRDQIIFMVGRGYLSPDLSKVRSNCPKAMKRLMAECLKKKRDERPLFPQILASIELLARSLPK

[4] = target: T4, c-Raf-1 (Homo sapiens, UniProt P04049); experiment: AlphaScreen kinase assay, c-Raf-1; conditions: read-out: IC50, activity toward kinase c-Raf-1
T4 construct: purchased Upstate Biotechnology
T4 sequence (P04049 whole entry): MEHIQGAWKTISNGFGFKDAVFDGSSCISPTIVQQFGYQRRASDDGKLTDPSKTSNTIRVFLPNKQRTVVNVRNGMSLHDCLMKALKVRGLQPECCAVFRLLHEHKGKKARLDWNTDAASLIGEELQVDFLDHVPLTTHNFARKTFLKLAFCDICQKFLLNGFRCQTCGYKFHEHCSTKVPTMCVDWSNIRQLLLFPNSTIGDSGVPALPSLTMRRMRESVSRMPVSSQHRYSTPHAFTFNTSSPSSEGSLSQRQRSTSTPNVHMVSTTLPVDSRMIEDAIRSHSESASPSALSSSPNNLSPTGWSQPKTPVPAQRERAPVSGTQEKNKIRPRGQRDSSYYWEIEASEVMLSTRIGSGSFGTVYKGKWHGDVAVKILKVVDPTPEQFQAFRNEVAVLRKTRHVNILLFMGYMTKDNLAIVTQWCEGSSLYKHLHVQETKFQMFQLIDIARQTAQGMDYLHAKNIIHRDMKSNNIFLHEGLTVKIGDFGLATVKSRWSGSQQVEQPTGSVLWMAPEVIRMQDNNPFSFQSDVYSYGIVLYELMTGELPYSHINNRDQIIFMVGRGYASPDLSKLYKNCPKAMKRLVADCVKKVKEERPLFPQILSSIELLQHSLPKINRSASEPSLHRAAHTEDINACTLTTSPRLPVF

[5] = target: T5, TEC (Homo sapiens, UniProt P42680); experiment: AlphaScreen kinase assay, TEC; conditions: read-out: IC50, activity toward kinase TEC
T5 sequence (P42680 1-631): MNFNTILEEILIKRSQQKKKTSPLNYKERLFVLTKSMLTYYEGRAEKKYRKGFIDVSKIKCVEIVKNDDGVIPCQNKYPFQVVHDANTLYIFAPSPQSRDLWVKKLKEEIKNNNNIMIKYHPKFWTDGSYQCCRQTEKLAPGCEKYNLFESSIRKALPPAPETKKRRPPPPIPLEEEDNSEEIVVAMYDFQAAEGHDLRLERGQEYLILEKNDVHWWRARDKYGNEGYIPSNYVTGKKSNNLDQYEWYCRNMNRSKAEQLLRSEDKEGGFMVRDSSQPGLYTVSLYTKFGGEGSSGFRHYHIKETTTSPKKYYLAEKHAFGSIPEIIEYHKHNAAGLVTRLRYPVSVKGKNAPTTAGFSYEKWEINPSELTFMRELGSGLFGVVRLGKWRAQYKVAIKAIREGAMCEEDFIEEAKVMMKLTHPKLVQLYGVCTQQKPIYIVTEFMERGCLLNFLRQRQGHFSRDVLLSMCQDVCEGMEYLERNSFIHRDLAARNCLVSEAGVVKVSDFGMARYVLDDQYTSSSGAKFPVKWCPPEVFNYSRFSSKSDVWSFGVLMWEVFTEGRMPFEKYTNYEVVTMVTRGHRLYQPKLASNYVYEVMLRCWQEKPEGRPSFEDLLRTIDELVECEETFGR
Description: (§1) AlphaScreen assay was used to screen additional kinases. The assay is similarly dependent on the phosphorylation of a peptide substrate. In this assay, an antibody that recognizes phosphorylated substrate is bound to an acceptor bead. The peptide substrate is attached to biotin, which binds to a donor head that contains streptavidin. Thus phosphorylated substrate is bound by antibody and streptavidin, bringing the donor and acceptor heads into close proximity when kinase is not inhibited. The donor produces singlet oxygen which results in emission from the acceptor when they are in close proximity. Conversely, when kinase is inhibited, the donor and acceptor beads are not associated and the emission from the acceptor is reduced.
(§2) AlphaScreen assays were done using compounds dissolved in DMSO to a concentration of 20 mM. The compounds were diluted accordingly to the desired final concentrations in each sample well, using 1:3 serial dilution for a total of 8 concentration points.

[6] = target: T6, FGFR1 (Homo sapiens, UniProt P11362, C488A/C584S); experiment: AlphaScreen kinase assay, FGFR1; conditions: read-out: IC50, activity toward kinase FGFR
T6 construct: P1351.pET N6 BI-PTP FGFR A458-E765-X C488A, C584S; made in house; host or cells: E. coli (PTP1B co-expressed)
T6 sequence (P11362 458-765 C488A/C584S): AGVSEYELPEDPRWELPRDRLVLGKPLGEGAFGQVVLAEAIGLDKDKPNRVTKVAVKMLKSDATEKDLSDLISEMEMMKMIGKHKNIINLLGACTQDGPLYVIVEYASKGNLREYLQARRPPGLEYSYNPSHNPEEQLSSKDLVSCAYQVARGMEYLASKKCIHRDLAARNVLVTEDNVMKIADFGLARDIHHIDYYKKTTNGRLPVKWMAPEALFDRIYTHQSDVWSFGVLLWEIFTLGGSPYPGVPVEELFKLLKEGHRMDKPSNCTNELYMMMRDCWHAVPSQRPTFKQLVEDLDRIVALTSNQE

[7] = target: T7, Itk (Homo sapiens, UniProt Q08881); experiment: AlphaScreen kinase assay, Itk; conditions: read-out: IC50, activity toward kinase Itk
T7 sequence (Q08881 1-620): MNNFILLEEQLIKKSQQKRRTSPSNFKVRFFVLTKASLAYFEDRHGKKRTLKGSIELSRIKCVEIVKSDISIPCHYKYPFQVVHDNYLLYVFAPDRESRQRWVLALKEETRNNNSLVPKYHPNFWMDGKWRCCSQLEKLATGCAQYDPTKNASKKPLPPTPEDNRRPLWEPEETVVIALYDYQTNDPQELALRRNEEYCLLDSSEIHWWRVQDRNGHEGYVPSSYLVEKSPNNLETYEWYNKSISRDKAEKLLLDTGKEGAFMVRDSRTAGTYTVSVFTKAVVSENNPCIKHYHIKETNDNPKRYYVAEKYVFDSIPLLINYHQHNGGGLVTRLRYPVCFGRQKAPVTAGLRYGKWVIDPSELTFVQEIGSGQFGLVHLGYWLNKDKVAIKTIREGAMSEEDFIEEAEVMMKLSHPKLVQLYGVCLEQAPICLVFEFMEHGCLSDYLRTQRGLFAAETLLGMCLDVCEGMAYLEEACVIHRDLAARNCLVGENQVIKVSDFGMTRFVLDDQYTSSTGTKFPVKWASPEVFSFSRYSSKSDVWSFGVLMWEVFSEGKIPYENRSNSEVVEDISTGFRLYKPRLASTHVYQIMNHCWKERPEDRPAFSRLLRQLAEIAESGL
Description: as §1, §2

[8] = target: T8, Fms (Homo sapiens, UniProt P07333); experiment: AlphaScreen kinase assay, Fms; conditions: read-out: IC50, activity toward kinase Fms
T8 construct: purchased Upstate Biotechnology
T8 sequence (P07333 20-972): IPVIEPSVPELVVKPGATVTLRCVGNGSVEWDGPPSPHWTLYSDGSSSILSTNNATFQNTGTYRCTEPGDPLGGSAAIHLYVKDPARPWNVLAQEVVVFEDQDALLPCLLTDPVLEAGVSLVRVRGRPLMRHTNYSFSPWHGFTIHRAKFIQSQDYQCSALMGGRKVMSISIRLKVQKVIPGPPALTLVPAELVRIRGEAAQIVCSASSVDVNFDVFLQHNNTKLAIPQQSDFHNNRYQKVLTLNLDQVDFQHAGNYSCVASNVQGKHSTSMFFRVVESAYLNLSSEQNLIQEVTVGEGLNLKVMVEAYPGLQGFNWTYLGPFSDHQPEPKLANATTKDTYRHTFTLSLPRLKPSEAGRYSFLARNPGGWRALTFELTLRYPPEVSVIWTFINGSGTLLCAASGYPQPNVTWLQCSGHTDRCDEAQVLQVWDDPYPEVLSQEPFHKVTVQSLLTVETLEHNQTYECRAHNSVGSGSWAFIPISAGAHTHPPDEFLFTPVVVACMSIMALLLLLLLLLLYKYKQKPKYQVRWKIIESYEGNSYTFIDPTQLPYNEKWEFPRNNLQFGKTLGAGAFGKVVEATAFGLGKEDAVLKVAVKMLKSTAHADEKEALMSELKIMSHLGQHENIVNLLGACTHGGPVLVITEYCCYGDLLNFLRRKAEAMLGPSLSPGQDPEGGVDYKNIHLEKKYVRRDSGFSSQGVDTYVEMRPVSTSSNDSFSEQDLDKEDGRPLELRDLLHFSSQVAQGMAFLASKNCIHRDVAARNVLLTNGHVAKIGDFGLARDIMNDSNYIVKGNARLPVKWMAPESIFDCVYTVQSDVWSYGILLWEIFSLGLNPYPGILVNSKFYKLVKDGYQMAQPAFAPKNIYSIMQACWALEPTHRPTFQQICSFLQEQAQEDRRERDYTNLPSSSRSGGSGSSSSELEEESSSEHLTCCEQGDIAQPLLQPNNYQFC

[9] = target: IGF1R (Homo sapiens, UniProt P08069); experiment: AlphaScreen kinase assay, IGF1R; conditions: read-out: IC50, activity toward kinase IGF1R
Chain of IGF1R (P08069 31-1367): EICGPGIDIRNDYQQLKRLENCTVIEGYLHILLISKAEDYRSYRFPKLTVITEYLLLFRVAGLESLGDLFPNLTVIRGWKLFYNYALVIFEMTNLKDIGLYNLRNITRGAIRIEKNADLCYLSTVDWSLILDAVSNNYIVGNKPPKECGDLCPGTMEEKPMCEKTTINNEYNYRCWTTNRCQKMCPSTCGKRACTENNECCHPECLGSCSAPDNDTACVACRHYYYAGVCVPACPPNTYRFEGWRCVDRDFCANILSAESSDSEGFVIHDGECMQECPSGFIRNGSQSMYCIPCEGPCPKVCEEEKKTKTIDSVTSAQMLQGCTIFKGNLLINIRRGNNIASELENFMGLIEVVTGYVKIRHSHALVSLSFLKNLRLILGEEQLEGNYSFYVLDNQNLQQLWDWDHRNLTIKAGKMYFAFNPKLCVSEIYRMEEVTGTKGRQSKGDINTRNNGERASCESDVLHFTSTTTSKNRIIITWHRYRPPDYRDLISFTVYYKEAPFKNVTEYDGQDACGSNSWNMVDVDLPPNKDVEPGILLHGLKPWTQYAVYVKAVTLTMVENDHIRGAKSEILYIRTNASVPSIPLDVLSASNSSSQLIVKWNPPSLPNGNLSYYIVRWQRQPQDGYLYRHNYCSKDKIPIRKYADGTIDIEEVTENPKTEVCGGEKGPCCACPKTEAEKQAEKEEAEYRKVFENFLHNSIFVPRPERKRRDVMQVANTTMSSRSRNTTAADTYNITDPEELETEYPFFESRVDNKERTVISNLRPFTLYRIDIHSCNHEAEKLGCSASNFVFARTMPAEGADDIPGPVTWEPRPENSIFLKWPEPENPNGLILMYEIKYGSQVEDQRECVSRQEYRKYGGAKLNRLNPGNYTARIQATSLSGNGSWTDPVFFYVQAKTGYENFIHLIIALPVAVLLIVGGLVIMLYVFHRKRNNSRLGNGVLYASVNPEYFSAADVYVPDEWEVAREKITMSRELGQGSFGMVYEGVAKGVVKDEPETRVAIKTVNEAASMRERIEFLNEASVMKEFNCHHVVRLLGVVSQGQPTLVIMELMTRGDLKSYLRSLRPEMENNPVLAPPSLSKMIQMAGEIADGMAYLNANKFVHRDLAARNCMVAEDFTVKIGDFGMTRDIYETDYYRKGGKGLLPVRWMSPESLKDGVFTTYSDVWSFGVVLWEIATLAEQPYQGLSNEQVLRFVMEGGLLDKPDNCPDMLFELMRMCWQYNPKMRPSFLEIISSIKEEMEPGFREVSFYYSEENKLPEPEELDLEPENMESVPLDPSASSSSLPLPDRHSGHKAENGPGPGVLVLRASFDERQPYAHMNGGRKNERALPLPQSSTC
Description: AlphaScreen assays were done using compounds dissolved in DMSO to a concentration of 20 mM. The compounds were diluted accordingly to the desired final concentrations in each sample well, using 1:3 serial dilution for a total of 8 concentration points. Plates were prepared such that each kinase reaction is 20 μl in 1× kinase buffer, 5% DMSO and 10 μM ATP. After incubation of the kinase reaction for 1 hour at room temperature, 5 μl of donor beads in stop buffer (50 mM EDTA in 1× kinase buffer) was added, the sample was mixed and incubated for 20 minutes at room temperature before adding 5 μl of acceptor beads in stop buffer. The samples were incubated for 60 minutes at room temperature and the signal per well was read on AlphaQuest reader.

[10] = target: T9, Jak3 (Homo sapiens, UniProt P52333); experiment: AlphaScreen kinase assay, Jak3; conditions: read-out: IC50, activity toward kinase Jak3
T9 sequence (P52333 1-1124): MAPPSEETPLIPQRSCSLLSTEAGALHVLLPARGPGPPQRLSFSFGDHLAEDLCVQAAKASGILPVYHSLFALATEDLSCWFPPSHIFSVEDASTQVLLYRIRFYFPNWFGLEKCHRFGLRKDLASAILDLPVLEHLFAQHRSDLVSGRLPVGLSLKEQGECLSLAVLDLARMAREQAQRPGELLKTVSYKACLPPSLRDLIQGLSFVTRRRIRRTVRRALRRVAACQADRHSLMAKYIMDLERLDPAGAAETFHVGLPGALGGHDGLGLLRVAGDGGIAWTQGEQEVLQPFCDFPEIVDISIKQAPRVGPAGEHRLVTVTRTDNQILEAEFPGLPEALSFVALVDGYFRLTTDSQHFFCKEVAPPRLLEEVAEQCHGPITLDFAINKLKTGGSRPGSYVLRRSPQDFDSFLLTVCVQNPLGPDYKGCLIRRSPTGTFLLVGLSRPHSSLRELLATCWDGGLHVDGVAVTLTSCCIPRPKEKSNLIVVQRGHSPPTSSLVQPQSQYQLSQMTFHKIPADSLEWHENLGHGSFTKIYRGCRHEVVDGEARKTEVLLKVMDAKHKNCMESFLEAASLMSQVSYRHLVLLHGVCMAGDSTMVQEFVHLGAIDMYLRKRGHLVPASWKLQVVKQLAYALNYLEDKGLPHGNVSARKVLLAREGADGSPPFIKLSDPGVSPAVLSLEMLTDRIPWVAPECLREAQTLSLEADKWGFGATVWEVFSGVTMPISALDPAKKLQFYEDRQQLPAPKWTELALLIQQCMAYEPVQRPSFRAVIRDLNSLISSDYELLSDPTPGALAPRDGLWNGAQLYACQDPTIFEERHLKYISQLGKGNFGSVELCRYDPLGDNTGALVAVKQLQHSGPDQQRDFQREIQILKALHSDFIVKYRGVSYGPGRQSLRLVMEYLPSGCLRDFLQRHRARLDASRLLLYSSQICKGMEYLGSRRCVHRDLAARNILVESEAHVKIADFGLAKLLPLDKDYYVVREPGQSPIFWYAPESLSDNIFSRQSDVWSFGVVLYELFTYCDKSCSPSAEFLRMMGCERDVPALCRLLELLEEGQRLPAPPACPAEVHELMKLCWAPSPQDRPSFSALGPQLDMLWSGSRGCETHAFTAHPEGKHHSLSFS
Description: as §1, §2

[11] = target: T10, Kdr (Homo sapiens, UniProt P35968); experiment: Z'-Lyte FRET kinase assay (Invitrogen), Kdr; conditions: read-out: IC50, activity toward kinase Kdr
T10 construct: purchased Invitrogen (assay run by Invitrogen)

[12] = target: T11, IKK beta (Homo sapiens, UniProt O14920); experiment: AlphaScreen kinase assay, IKK beta; conditions: read-out: IC50, activity toward kinase IKK beta
T11 sequence (O14920 1-756): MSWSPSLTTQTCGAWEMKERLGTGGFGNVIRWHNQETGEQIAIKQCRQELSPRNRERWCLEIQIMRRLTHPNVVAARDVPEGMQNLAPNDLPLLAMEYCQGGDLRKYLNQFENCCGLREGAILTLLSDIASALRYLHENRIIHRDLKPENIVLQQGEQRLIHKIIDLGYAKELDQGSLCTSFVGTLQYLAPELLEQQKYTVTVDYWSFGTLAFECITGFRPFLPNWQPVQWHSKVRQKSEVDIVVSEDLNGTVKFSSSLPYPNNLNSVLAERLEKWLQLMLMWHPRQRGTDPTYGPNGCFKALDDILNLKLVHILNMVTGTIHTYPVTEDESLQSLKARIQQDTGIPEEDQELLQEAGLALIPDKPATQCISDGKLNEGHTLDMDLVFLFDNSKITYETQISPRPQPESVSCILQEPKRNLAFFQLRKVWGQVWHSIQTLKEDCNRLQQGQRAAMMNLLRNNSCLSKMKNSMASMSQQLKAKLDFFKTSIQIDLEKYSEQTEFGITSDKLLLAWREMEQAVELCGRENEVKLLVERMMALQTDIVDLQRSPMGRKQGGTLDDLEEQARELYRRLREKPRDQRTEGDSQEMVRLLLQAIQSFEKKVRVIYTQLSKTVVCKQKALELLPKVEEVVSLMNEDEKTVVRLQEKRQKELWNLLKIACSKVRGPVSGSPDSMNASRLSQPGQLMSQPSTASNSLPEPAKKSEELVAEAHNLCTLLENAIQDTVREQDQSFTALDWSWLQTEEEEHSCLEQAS

[13] = target: T12, Zap70 (Homo sapiens, UniProt P43403); experiment: AlphaScreen kinase assay, Zap70; conditions: read-out: IC50, activity toward kinase Zap70
T12 construct: P1868.pFastBac1 ZAP70 D327-G606 HIS, WT; His7 (HHHHHHH) (C); made in house
T12 sequence (P43403 with tags, fused parts or gaps): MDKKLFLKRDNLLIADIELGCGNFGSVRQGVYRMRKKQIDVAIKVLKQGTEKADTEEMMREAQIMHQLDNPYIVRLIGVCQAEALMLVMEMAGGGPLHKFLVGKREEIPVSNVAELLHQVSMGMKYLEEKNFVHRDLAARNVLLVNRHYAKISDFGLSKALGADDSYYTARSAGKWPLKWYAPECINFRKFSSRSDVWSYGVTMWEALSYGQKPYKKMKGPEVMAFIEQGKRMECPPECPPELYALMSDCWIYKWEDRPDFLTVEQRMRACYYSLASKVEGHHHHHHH
Method in brief: (§3)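 Stock 20 mM compound in DMSO, diluted 1:3 serially to 8 final concentrations. Kinase phosphorylates biotinylated peptide; donor (streptavidin) and acceptor (anti-phospho antibody) beads then associate. Reduced acceptor emission indicates inhibition.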

[14] = target: T13, Ret (Homo sapiens, UniProt P07949); experiment: AlphaScreen kinase assay, Ret; conditions: read-out: IC50, activity toward kinase Ret
T13 construct: P1378.pET-SF BI-PTP RET H661-R1012 HIS; made in house
T13 sequence (P07949 with tags, fused parts or gaps): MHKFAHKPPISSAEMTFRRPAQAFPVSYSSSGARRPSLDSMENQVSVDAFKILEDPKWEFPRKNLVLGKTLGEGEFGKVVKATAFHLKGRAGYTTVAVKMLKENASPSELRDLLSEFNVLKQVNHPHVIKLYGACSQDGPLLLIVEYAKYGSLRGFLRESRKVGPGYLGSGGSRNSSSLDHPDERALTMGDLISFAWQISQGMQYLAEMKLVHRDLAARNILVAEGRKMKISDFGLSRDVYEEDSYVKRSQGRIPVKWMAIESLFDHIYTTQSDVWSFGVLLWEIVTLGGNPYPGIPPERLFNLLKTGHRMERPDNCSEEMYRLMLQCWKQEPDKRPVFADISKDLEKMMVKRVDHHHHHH

[15] = target: T14, Jnk3 (Homo sapiens, UniProt P53779); experiment: AlphaScreen kinase assay, Jnk3; conditions: read-out: IC50, activity toward kinase Jnk3
T14 construct: purchased Upstate Biotechnology

[16] = target: T15, Met (Homo sapiens, UniProt P08581); experiment: AlphaScreen kinase assay, Met; conditions: read-out: IC50, activity toward kinase Met
T15 construct: P1818.pETN6 BI-PTP MET G1056-G1364-X WT; His6 (N); made in house; host or cells: E. coli (PTP1B co-expressed)
T15 sequence (P08581 with tags, fused parts or gaps): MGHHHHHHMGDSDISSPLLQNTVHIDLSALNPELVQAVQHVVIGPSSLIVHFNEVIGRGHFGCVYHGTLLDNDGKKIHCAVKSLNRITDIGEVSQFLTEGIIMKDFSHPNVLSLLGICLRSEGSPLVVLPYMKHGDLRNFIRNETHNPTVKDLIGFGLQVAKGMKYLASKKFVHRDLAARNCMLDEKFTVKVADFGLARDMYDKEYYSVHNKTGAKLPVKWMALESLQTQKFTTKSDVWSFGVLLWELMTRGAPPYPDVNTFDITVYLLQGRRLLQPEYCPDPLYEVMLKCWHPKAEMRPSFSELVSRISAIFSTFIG
Method in brief: as §3

Measured: IC50

T1 sequence (P15056 whole entry): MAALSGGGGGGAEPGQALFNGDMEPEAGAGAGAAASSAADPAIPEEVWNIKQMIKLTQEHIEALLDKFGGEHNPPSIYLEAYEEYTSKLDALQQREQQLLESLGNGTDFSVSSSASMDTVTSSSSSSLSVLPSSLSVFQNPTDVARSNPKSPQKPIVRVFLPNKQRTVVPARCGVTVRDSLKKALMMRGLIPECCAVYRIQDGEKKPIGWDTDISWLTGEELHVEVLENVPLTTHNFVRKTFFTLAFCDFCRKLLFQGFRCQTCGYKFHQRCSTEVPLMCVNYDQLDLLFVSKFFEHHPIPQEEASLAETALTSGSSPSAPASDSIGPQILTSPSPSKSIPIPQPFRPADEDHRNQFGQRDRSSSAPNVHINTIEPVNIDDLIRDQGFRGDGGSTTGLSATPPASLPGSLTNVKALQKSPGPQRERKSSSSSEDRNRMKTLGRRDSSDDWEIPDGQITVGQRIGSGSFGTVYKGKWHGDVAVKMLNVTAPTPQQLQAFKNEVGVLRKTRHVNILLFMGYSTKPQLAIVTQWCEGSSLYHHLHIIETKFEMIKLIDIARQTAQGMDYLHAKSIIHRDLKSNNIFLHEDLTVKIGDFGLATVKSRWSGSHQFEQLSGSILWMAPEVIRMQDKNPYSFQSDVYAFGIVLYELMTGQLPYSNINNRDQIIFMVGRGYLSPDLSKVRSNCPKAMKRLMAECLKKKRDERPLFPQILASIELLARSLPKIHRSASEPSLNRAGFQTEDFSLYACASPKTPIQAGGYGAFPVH

COc1ccc(S(=O)(=O)Nc2ccc(F)c(C(=O)c3c[nH]c4ncc(Cl)cc34)c2F)cc1 [Compound P-0983, N-[3-(5-Chloro-1H-pyrrolo[2,3-b]pyridine-3-carbonyl)-2,4-difluoro-phenyl]-4-methoxy-benzenesulfonamide]
≤ 10 µM: [1] | [2] | [3] | [4] | [5] | [6]

CS(=O)(=O)Nc1cccc(-c2cnc3[nH]ccc3c2)c1 [Compound P-1337]
≤ 10 µM: [7] | [8] | [9] | [6]

OCc1cccc(-c2ccnc3[nH]ccc23)c1 [Compound P-0084]
≤ 10 µM: [9] | [10] | [11] | [12]

CS(=O)(=O)Nc1cccc(-c2cnc3[nH]cc(C(=O)c4cc(O)ccc4F)c3c2)c1 [Compound P-0716, N-{3-[3-(2-Fluoro-5-hydroxy-benzoyl)-1H-pyrrolo[2,3-b]pyridin-5-yl]-phenyl}-methanesulfonamide]
≤ 10 µM: [1] | [7] | [13] | [14] | [3] | [4] | [9] | [15] | [16]
